{"source": "ChEMBL document CHEMBL3045610", "about": "“Pyridoquinolones containing azetidinones: synthesis and their biological evaluation” (2012)", "assay_type_in_all_cases": "functional", "key": {"[1]": {"test_system": "Mycobacterium tuberculosis", "assay": "Antimicrobial activity against Mycobacterium tuberculosis H37Rv by broth dilution method"}, "Streptococcus pyogenes": {"test_system": "Streptococcus pyogenes", "assay": "Antibacterial activity against Streptococcus pyogenes by broth dilution method"}, "Escherichia coli": {"test_system": "Escherichia coli", "assay": "Antibacterial activity against Escherichia coli by broth dilution method"}, "Aspergillus clavatus": {"test_system": "Aspergillus clavatus", "assay": "Antifungal activity against Aspergillus clavatus by broth dilution method"}, "Staphylococcus aureus": {"test_system": "Staphylococcus aureus", "assay": "Antibacterial activity against Staphylococcus aureus by broth dilution method"}, "Aspergillus niger": {"test_system": "Aspergillus niger", "assay": "Antifungal activity against Aspergillus niger by broth dilution method"}, "Candida albicans": {"test_system": "Candida albicans", "assay": "Antifungal activity against Candida albicans by broth dilution method"}, "Pseudomonas aeruginosa": {"test_system": "Pseudomonas aeruginosa", "assay": "Antibacterial activity against Pseudomonas aeruginosa by broth dilution method"}}}
{"compound": "NNC(=O)c1ccncc1", "note": "[ISONIAZID]", "values": [{"measurement": "MIC", "setting": "[1]", "value": 0.2, "unit": "µg/mL"}]}
{"compound": "Cc1ccc(/C=N/NC(=O)c2c[nH]c3c(ccc4nc(Cl)cc(C)c43)c2=O)cc1", "values": [{"measurement": "MIC", "setting": "Streptococcus pyogenes", "value": 250, "unit": "µg/mL"}, {"measurement": "MIC", "setting": "Escherichia coli", "value": 200, "unit": "µg/mL"}, {"measurement": "MIC", "setting": "Aspergillus clavatus", "value": 500, "unit": "µg/mL"}, {"measurement": "MIC", "setting": "Staphylococcus aureus", "value": 250, "unit": "µg/mL"}, {"measurement": "MIC", "setting": "Aspergillus niger", "value": 500, "unit": "µg/mL"}, {"measurement": "MIC", "setting": "Candida albicans", "value": 250, "unit": "µg/mL"}, {"measurement": "MIC", "setting": "Pseudomonas aeruginosa", "value": 250, "unit": "µg/mL"}]}
{"compound": "COC1=CC(=O)C[C@@H](C)[C@]12Oc1c(Cl)c(OC)cc(OC)c1C2=O", "note": "[GRISEOFULVIN]", "values": [{"measurement": "MIC", "setting": "Aspergillus clavatus", "value": 100, "unit": "µg/mL"}, {"measurement": "MIC", "setting": "Aspergillus niger", "value": 100, "unit": "µg/mL"}, {"measurement": "MIC", "setting": "Candida albicans", "value": 500, "unit": "µg/mL"}]}
{"compound": "O=C(O)c1cn(C2CC2)c2cc(N3CCNCC3)c(F)cc2c1=O", "note": "[CIPROFLOXACIN]", "values": [{"measurement": "MIC", "setting": "Streptococcus pyogenes", "value": 50, "unit": "µg/mL"}, {"measurement": "MIC", "setting": "Escherichia coli", "value": 25, "unit": "µg/mL"}, {"measurement": "MIC", "setting": "Staphylococcus aureus", "value": 50, "unit": "µg/mL"}]}
{"compound": "Cc1cc(Cl)nc2ccc3c(=O)c(C(=O)NN4C(=O)C(Cl)C4c4ccc(Cl)cc4)c[nH]c3c12", "note": "(stereo unspecified)", "values": [{"measurement": "MIC", "setting": "Streptococcus pyogenes", "value": 500, "unit": "µg/mL"}, {"measurement": "MIC", "setting": "[1]", "value": 100, "unit": "µg/mL"}, {"measurement": "MIC", "setting": "Escherichia coli", "value": 100, "unit": "µg/mL"}, {"measurement": "MIC", "setting": "Aspergillus clavatus", "value": 500, "unit": "µg/mL"}, {"measurement": "MIC", "setting": "Staphylococcus aureus", "value": 500, "unit": "µg/mL"}, {"measurement": "MIC", "setting": "Aspergillus niger", "value": 500, "unit": "µg/mL"}, {"measurement": "MIC", "setting": "Candida albicans", "value": 200, "unit": "µg/mL"}, {"measurement": "MIC", "setting": "Pseudomonas aeruginosa", "value": 100, "unit": "µg/mL"}]}
{"compound": "COc1ccccc1C1C(Cl)C(=O)N1NC(=O)c1c[nH]c2c(ccc3nc(Cl)cc(C)c32)c1=O", "note": "(stereo unspecified)", "values": [{"measurement": "MIC", "setting": "Streptococcus pyogenes", "value": 500, "unit": "µg/mL"}, {"measurement": "MIC", "setting": "Escherichia coli", "value": 500, "unit": "µg/mL"}, {"measurement": "MIC", "setting": "Aspergillus clavatus", "value": "> 1000", "unit": "µg/mL"}, {"measurement": "MIC", "setting": "Staphylococcus aureus", "value": 250, "unit": "µg/mL"}, {"measurement": "MIC", "setting": "Aspergillus niger", "value": "> 1000", "unit": "µg/mL"}, {"measurement": "MIC", "setting": "Candida albicans", "value": 250, "unit": "µg/mL"}, {"measurement": "MIC", "setting": "Pseudomonas aeruginosa", "value": 1000, "unit": "µg/mL"}]}
{"compound": "COc1cc(C2C(Cl)C(=O)N2NC(=O)c2c[nH]c3c(ccc4nc(Cl)cc(C)c43)c2=O)ccc1O", "note": "(stereo unspecified)", "values": [{"measurement": "MIC", "setting": "Streptococcus pyogenes", "value": 1000, "unit": "µg/mL"}, {"measurement": "MIC", "setting": "Escherichia coli", "value": 250, "unit": "µg/mL"}, {"measurement": "MIC", "setting": "Aspergillus clavatus", "value": 500, "unit": "µg/mL"}, {"measurement": "MIC", "setting": "Staphylococcus aureus", "value": 1000, "unit": "µg/mL"}, {"measurement": "MIC", "setting": "Aspergillus niger", "value": 500, "unit": "µg/mL"}, {"measurement": "MIC", "setting": "Candida albicans", "value": 1000, "unit": "µg/mL"}, {"measurement": "MIC", "setting": "Pseudomonas aeruginosa", "value": 500, "unit": "µg/mL"}]}
{"compound": "Cc1cc(Cl)nc2ccc3c(=O)c(C(=O)N/N=C/c4cc([N+](=O)[O-])ccc4O)c[nH]c3c12", "values": [{"measurement": "MIC", "setting": "Streptococcus pyogenes", "value": 250, "unit": "µg/mL"}, {"measurement": "MIC", "setting": "[1]", "value": 500, "unit": "µg/mL"}, {"measurement": "MIC", "setting": "Escherichia coli", "value": 62.5, "unit": "µg/mL"}, {"measurement": "MIC", "setting": "Aspergillus clavatus", "value": 1000, "unit": "µg/mL"}, {"measurement": "MIC", "setting": "Staphylococcus aureus", "value": 200, "unit": "µg/mL"}, {"measurement": "MIC", "setting": "Aspergillus niger", "value": 1000, "unit": "µg/mL"}, {"measurement": "MIC", "setting": "Candida albicans", "value": 200, "unit": "µg/mL"}, {"measurement": "MIC", "setting": "Pseudomonas aeruginosa", "value": 100, "unit": "µg/mL"}]}
{"compound": "Cc1cc(Cl)nc2ccc3c(=O)c(C(=O)N/N=C/c4ccc(Cl)cc4)c[nH]c3c12", "values": [{"measurement": "MIC", "setting": "Streptococcus pyogenes", "value": 250, "unit": "µg/mL"}, {"measurement": "MIC", "setting": "Escherichia coli", "value": 500, "unit": "µg/mL"}, {"measurement": "MIC", "setting": "Aspergillus clavatus", "value": 250, "unit": "µg/mL"}, {"measurement": "MIC", "setting": "Staphylococcus aureus", "value": 250, "unit": "µg/mL"}, {"measurement": "MIC", "setting": "Aspergillus niger", "value": 250, "unit": "µg/mL"}, {"measurement": "MIC", "setting": "Candida albicans", "value": 500, "unit": "µg/mL"}, {"measurement": "MIC", "setting": "Pseudomonas aeruginosa", "value": 1000, "unit": "µg/mL"}]}
{"compound": "COc1cc(/C=N/NC(=O)c2c[nH]c3c(ccc4nc(Cl)cc(C)c43)c2=O)ccc1O", "values": [{"measurement": "MIC", "setting": "Streptococcus pyogenes", "value": 200, "unit": "µg/mL"}, {"measurement": "MIC", "setting": "[1]", "value": 500, "unit": "µg/mL"}, {"measurement": "MIC", "setting": "Escherichia coli", "value": 500, "unit": "µg/mL"}, {"measurement": "MIC", "setting": "Aspergillus clavatus", "value": 1000, "unit": "µg/mL"}, {"measurement": "MIC", "setting": "Staphylococcus aureus", "value": 100, "unit": "µg/mL"}, {"measurement": "MIC", "setting": "Aspergillus niger", "value": 1000, "unit": "µg/mL"}, {"measurement": "MIC", "setting": "Candida albicans", "value": 250, "unit": "µg/mL"}, {"measurement": "MIC", "setting": "Pseudomonas aeruginosa", "value": 500, "unit": "µg/mL"}]}
{"compound": "Cc1cc(Cl)nc2ccc3c(=O)c(C(=O)NN4C(=O)C(Cl)C4c4cc([N+](=O)[O-])ccc4O)c[nH]c3c12", "note": "(stereo unspecified)", "values": [{"measurement": "MIC", "setting": "Streptococcus pyogenes", "value": 500, "unit": "µg/mL"}, {"measurement": "MIC", "setting": "Escherichia coli", "value": 250, "unit": "µg/mL"}, {"measurement": "MIC", "setting": "Aspergillus clavatus", "value": 500, "unit": "µg/mL"}, {"measurement": "MIC", "setting": "Staphylococcus aureus", "value": 500, "unit": "µg/mL"}, {"measurement": "MIC", "setting": "Aspergillus niger", "value": 500, "unit": "µg/mL"}, {"measurement": "MIC", "setting": "Candida albicans", "value": 250, "unit": "µg/mL"}, {"measurement": "MIC", "setting": "Pseudomonas aeruginosa", "value": 500, "unit": "µg/mL"}]}
{"compound": "Cc1ccc(C2C(Cl)C(=O)N2NC(=O)c2c[nH]c3c(ccc4nc(Cl)cc(C)c43)c2=O)cc1", "note": "(stereo unspecified)", "values": [{"measurement": "MIC", "setting": "Streptococcus pyogenes", "value": 250, "unit": "µg/mL"}, {"measurement": "MIC", "setting": "Escherichia coli", "value": 250, "unit": "µg/mL"}, {"measurement": "MIC", "setting": "Aspergillus clavatus", "value": "> 1000", "unit": "µg/mL"}, {"measurement": "MIC", "setting": "Staphylococcus aureus", "value": 250, "unit": "µg/mL"}, {"measurement": "MIC", "setting": "Aspergillus niger", "value": "> 1000", "unit": "µg/mL"}, {"measurement": "MIC", "setting": "Candida albicans", "value": 200, "unit": "µg/mL"}, {"measurement": "MIC", "setting": "Pseudomonas aeruginosa", "value": 250, "unit": "µg/mL"}]}
{"compound": "COc1ccc(/C=N/NC(=O)c2c[nH]c3c(ccc4nc(Cl)cc(C)c43)c2=O)cc1", "values": [{"measurement": "MIC", "setting": "Streptococcus pyogenes", "value": 500, "unit": "µg/mL"}, {"measurement": "MIC", "setting": "Escherichia coli", "value": 250, "unit": "µg/mL"}, {"measurement": "MIC", "setting": "Aspergillus clavatus", "value": 500, "unit": "µg/mL"}, {"measurement": "MIC", "setting": "Staphylococcus aureus", "value": 500, "unit": "µg/mL"}, {"measurement": "MIC", "setting": "Aspergillus niger", "value": 500, "unit": "µg/mL"}, {"measurement": "MIC", "setting": "Candida albicans", "value": 500, "unit": "µg/mL"}, {"measurement": "MIC", "setting": "Pseudomonas aeruginosa", "value": 500, "unit": "µg/mL"}]}
{"compound": "NYSTATIN", "values": [{"measurement": "MIC", "setting": "Aspergillus clavatus", "value": 100, "unit": "µg/mL"}, {"measurement": "MIC", "setting": "Aspergillus niger", "value": 100, "unit": "µg/mL"}, {"measurement": "MIC", "setting": "Candida albicans", "value": 100, "unit": "µg/mL"}]}
{"compound": "Cc1cc(Cl)nc2ccc3c(=O)c(C(=O)NN)c[nH]c3c12", "values": [{"measurement": "MIC", "setting": "Streptococcus pyogenes", "value": 200, "unit": "µg/mL"}, {"measurement": "MIC", "setting": "[1]", "value": 200, "unit": "µg/mL"}, {"measurement": "MIC", "setting": "Escherichia coli", "value": 100, "unit": "µg/mL"}, {"measurement": "MIC", "setting": "Aspergillus clavatus", "value": "> 1000", "unit": "µg/mL"}, {"measurement": "MIC", "setting": "Staphylococcus aureus", "value": 250, "unit": "µg/mL"}, {"measurement": "MIC", "setting": "Aspergillus niger", "value": "> 1000", "unit": "µg/mL"}, {"measurement": "MIC", "setting": "Candida albicans", "value": 500, "unit": "µg/mL"}, {"measurement": "MIC", "setting": "Pseudomonas aeruginosa", "value": 200, "unit": "µg/mL"}]}
